Reference: ChEMBL document CHEMBL1150098, “Makaluvamines H-M and damirone C from the pohnpeian sponge Zyzzya fuliginosa” (J Nat Prod, 1995)
Activity calls are given as the source filed them. The calls are words filed in the database; no cut-off is given here.

Each molecule was assayed on HCT-116 (assay: Cytotoxicity against human HCT116 cells).
Assay type: functional, cell-based

Row | SMILES | Activity
1 | C[N+]1=C2C=C(N/C=C/c3ccc(O)cc3)C(=O)c3[nH]cc(c32)CC1 | Active
2 | Cn1cc2c3c1C(=O)C(N)=CC3=NCC2 | Active
3 | Cn1cc2c3c1C(=O)C(N)=CC3=[N+](C)CC2 | Active
4 | O=C1C(N/C=C/c2ccc(O)cc2)=CC2=NCCc3c[nH]c1c32 | Active
5 | O=C1C(NCCc2ccc(O)cc2)=CC2=NCCc3c[nH]c1c32 | Active
6 | O=C1C(NC2Cc3cc(Br)c(O)cc3S2)=CC2=NCCc3c[nH]c1c32 (stereo not drawn) | Active
7 | Cn1cc2c3c1C(=O)C(NCCc1ccc(O)cc1)=CC3=NCC2 | Active
8 | C[N+]1=C2C=C(N)C(=O)c3[nH]cc(c32)CC1 | Active
9 | NC1=CC2=NCCc3c[nH]c(c32)C1=O | Active
10 | C[N+]1=C2C=C(NCCc3ccc(O)cc3)C(=O)c3[nH]cc(c32)CC1 | Active
11 | Cn1cc2c3c1C(=O)C(N/C=C/c1ccc(O)cc1)=CC3=NCC2 | Active
12 | Cn1cc2c3c1C(=O)C(N/C=C/c1ccc(O)cc1)=CC3=[N+](C)CC2 | Active

The molecules below were run against DNA topoisomerase 2-alpha (Homo sapiens) (UniProt P11388) (assay: Inhibition of DNA topoisomerase 2).
DNA topoisomerase 2-alpha (Homo sapiens), sequence (P11388 whole entry): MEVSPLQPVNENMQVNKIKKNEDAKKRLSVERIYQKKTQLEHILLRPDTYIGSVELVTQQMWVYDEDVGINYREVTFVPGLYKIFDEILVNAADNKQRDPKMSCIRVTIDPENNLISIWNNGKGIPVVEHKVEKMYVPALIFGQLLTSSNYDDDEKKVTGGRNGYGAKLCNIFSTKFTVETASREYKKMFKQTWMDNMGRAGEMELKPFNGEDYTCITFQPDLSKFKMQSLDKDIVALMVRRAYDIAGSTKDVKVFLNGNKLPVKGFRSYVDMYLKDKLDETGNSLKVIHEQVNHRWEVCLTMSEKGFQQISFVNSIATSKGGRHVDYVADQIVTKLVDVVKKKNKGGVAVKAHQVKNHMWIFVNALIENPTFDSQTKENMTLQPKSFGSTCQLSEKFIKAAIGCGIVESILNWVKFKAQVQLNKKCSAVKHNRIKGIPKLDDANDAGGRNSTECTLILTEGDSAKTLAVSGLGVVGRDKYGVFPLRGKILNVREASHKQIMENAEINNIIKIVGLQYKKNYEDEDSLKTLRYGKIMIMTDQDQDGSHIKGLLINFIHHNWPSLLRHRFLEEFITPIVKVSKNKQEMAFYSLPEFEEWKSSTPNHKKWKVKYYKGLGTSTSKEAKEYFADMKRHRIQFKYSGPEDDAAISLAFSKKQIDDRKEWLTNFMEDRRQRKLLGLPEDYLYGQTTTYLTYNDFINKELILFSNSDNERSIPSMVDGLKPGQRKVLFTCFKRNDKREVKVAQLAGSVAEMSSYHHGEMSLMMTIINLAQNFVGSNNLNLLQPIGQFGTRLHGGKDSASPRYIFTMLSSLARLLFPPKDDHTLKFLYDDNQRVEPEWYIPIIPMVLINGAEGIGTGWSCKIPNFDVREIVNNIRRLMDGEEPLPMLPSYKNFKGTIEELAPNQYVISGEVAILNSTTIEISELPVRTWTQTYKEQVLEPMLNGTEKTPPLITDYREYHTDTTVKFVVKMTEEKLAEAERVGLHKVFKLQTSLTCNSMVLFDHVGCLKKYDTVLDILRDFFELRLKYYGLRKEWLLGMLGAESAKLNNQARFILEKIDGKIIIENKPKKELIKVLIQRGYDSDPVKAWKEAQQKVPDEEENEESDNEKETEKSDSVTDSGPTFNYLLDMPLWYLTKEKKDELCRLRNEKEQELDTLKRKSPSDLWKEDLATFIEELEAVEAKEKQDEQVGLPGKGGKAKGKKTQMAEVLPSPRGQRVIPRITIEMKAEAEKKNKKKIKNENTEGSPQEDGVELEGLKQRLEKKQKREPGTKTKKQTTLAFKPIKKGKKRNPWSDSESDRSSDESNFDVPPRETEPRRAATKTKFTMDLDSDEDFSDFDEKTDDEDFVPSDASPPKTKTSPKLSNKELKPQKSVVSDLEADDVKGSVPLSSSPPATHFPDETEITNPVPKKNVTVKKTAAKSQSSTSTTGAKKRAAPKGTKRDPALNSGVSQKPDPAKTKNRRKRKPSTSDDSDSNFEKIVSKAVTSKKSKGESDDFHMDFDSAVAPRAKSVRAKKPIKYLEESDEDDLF

Row | SMILES | Activity
13 | C[N+]1=C2C=C(N/C=C/c3ccc(O)cc3)C(=O)c3[nH]cc(c32)CC1 | inactive
14 | Cn1cc2c3c1C(=O)C(N)=CC3=NCC2 | Active
15 | Cn1cc2c3c1C(=O)C(N)=CC3=[N+](C)CC2 | inactive
16 | O=C1C(N/C=C/c2ccc(O)cc2)=CC2=NCCc3c[nH]c1c32 | inactive
17 | O=C1C(NCCc2ccc(O)cc2)=CC2=NCCc3c[nH]c1c32 | inactive
18 | O=C1C(NC2Cc3cc(Br)c(O)cc3S2)=CC2=NCCc3c[nH]c1c32 (stereo not drawn) | Active
19 | Cn1cc2c3c1C(=O)C(NCCc1ccc(O)cc1)=CC3=NCC2 | inactive
20 | C[N+]1=C2C=C(N)C(=O)c3[nH]cc(c32)CC1 | Active
21 | C[N+]1=C2C=C(NCCc3ccc(O)cc3)C(=O)c3[nH]cc(c32)CC1 | inactive
22 | Cn1cc2c3c1C(=O)C(N/C=C/c1ccc(O)cc1)=CC3=NCC2 | Active
23 | Cn1cc2c3c1C(=O)C(N/C=C/c1ccc(O)cc1)=CC3=[N+](C)CC2 | inactive
